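All cell lines were grown in 96-well plates and treated with compound for 48 hours. GI50: concentration for 50% inhibition of growth.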 Activity calls are given as the source filed them. Cut-off read from the data, not from the text of the source: active = GI50 up to about 1.1 µM and inactive = higher.
Assays:
Experiment in all cases: NCI anticancer screen, dose series, 48 h
COLO 205 = tested on: COLO 205
MOLT-4 = tested on: MOLT-4
SK-MEL-5 = tested on: SK-MEL-5
MDA-MB-231 = tested on: MDA-MB-231
NCI-H460 = tested on: NCI-H460
SN12C = tested on: SN12C
HCC 2998 = tested on: HCC 2998
UACC-62 = tested on: UACC-62
HCT-116 = tested on: HCT-116
M14 = tested on: M14
UO-31 = tested on: UO-31
T47D = tested on: T47D
MDA-MB-435 = tested on: MDA-MB-435
ACHN = tested on: ACHN
RPMI-8226 = tested on: RPMI-8226
OVCAR-8 = tested on: OVCAR-8
SW-620 = tested on: SW-620
SK-MEL-2 = tested on: SK-MEL-2
HOP-62 = tested on: HOP-62
IGROV-1 = tested on: IGROV-1

Q: Which results are given for `O=C1/C(=C/c2ccccc2)CN(C(=O)CCN2CCOCC2)C/C1=C\c1ccccc1`?
A: GI50 (COLO 205): 2.74 µM (inactive); GI50 (MOLT-4): 2.58 µM (inactive); GI50 (SK-MEL-5): 2.17 µM (inactive); GI50 (MDA-MB-231): 3.47 µM (inactive); GI50 (NCI-H460): 2.36 µM (inactive); GI50 (SN12C): 2.18 µM (inactive); GI50 (HCC 2998): 1.87 µM (inactive); GI50 (UACC-62): 1.88 µM (inactive); GI50 (HCT-116): 0.778 µM (active); GI50 (M14): 2.33 µM (inactive); GI50 (UO-31): 8.97 µM (inactive); GI50 (T47D): 3.34 µM (inactive); GI50 (MDA-MB-435): 1.9 µM (inactive); GI50 (ACHN): 3.49 µM (inactive); GI50 (RPMI-8226): 0.519 µM (active); GI50 (OVCAR-8): 2.99 µM (inactive); GI50 (SW-620): 0.459 µM (active); GI50 (SK-MEL-2): 2.55 µM (inactive); GI50 (HOP-62): 8.45 µM (inactive); GI50 (IGROV-1): 6.04 µM (inactive)

Q: With `O=C1Nc2ccccc2/C1=N/Nc1c(F)c(F)c(F)c(F)c1F` as the compound, how does the GI50 (COLO 205) read?
A: The GI50 was 13.9 µM (inactive).

Q: And the GI50 (MOLT-4)?
A: The GI50 was 12 µM (inactive).

Q: And the GI50 (SK-MEL-5)?
A: The GI50 was 58.5 µM (inactive).

Q: And the GI50 (MDA-MB-231)?
A: Its GI50 is > 100 µM (inactive).

Q: What about the GI50 (NCI-H460) of the same compound?
A: Its GI50 is 93.3 µM (inactive).

Q: What about the GI50 (SN12C) of the same compound?
A: The GI50 was 36.5 µM (inactive).

Q: What about the GI50 (HCC 2998) of the same compound?
A: The GI50 was > 100 µM (inactive).

Q: What about the GI50 (UACC-62) of the same compound?
A: Its GI50 is > 100 µM (inactive).

Q: And the GI50 (HCT-116)?
A: Its GI50 is 47.8 µM (inactive).

Q: What about the GI50 (M14) of the same compound?
A: Its GI50 is > 100 µM (inactive).

Q: What about the GI50 (UO-31) of the same compound?
A: The GI50 was 17.1 µM (inactive).

Q: And the GI50 (T47D)?
A: The GI50 was 22 µM (inactive).

Q: And the GI50 (MDA-MB-435)?
A: The GI50 was > 100 µM (inactive).

Q: What about the GI50 (ACHN) of the same compound?
A: The GI50 was 18 µM (inactive).

Q: And the GI50 (RPMI-8226)?
A: The GI50 was 3.83 µM (inactive).

Q: What about the GI50 (OVCAR-8) of the same compound?
A: The GI50 was 41.9 µM (inactive).

Q: What about the GI50 (SW-620) of the same compound?
A: The GI50 was 43.9 µM (inactive).

Q: And the GI50 (SK-MEL-2)?
A: Its GI50 is > 100 µM (inactive).

Q: What about the GI50 (HOP-62) of the same compound?
A: The GI50 was > 100 µM (inactive).

Q: What about the GI50 (IGROV-1) of the same compound?
A: The GI50 was 20.5 µM (inactive).

Q: With `OC1[C@H](O)CN(OCc2ccccc2)C[C@@H]1O` (stereo not given in full) as the compound, how does the GI50 (COLO 205) read?
A: The GI50 was > 100 µM (inactive).

Q: And the GI50 (MOLT-4)?
A: Its GI50 is > 100 µM (inactive).

Q: What about the GI50 (SK-MEL-5) of the same compound?
A: Its GI50 is > 100 µM (inactive).

Q: What about the GI50 (MDA-MB-231) of the same compound?
A: The GI50 was > 100 µM (inactive).

Q: What about the GI50 (NCI-H460) of the same compound?
A: Its GI50 is > 100 µM (inactive).

Q: And the GI50 (SN12C)?
A: The GI50 was > 100 µM (inactive).

Q: What about the GI50 (HCC 2998) of the same compound?
A: The GI50 was > 100 µM (inactive).

Q: What about the GI50 (UACC-62) of the same compound?
A: The GI50 was > 100 µM (inactive).

Q: What about the GI50 (HCT-116) of the same compound?
A: The GI50 was > 100 µM (inactive).

Q: What about the GI50 (M14) of the same compound?
A: Its GI50 is > 100 µM (inactive).

Q: And the GI50 (UO-31)?
A: Its GI50 is > 100 µM (inactive).

Q: And the GI50 (T47D)?
A: Its GI50 is > 100 µM (inactive).

Q: What about the GI50 (MDA-MB-435) of the same compound?
A: Its GI50 is > 100 µM (inactive).

Q: What about the GI50 (ACHN) of the same compound?
A: The GI50 was > 100 µM (inactive).

Q: And the GI50 (RPMI-8226)?
A: The GI50 was > 100 µM (inactive).

Q: And the GI50 (OVCAR-8)?
A: Its GI50 is > 100 µM (inactive).

Q: What about the GI50 (SW-620) of the same compound?
A: Its GI50 is > 100 µM (inactive).

Q: And the GI50 (SK-MEL-2)?
A: The GI50 was > 100 µM (inactive).

Q: And the GI50 (HOP-62)?
A: Its GI50 is > 100 µM (inactive).

Q: And the GI50 (IGROV-1)?
A: The GI50 was > 100 µM (inactive).

Q: Which results are given for `CC1OC(OCC2OC(Oc3ccc(C4CC(=O)c5c(O)cc(O)cc5O4)cc3O)C(O)C(O)C2O)C(O)C(O)C1O` (stereo not given)?
A: GI50 (COLO 205): > 100 µM (inactive); GI50 (MOLT-4): > 100 µM (inactive); GI50 (SK-MEL-5): > 100 µM (inactive); GI50 (MDA-MB-231): > 100 µM (inactive); GI50 (NCI-H460): > 100 µM (inactive); GI50 (SN12C): > 100 µM (inactive); GI50 (HCC 2998): > 100 µM (inactive); GI50 (UACC-62): > 100 µM (inactive); GI50 (HCT-116): > 100 µM (inactive); GI50 (M14): > 100 µM (inactive); GI50 (UO-31): > 100 µM (inactive); GI50 (T47D): > 100 µM (inactive); GI50 (MDA-MB-435): > 100 µM (inactive); GI50 (ACHN): > 100 µM (inactive); GI50 (RPMI-8226): > 100 µM (inactive); GI50 (OVCAR-8): > 100 µM (inactive); GI50 (SW-620): > 100 µM (inactive); GI50 (SK-MEL-2): > 100 µM (inactive); GI50 (HOP-62): > 100 µM (inactive); GI50 (IGROV-1): > 100 µM (inactive)

Q: Which results are given for `COc1cc(C2c3cc4c(cc3OC(O)C2C)OCO4)cc(OC)c1O` (stereo not given)?
A: GI50 (COLO 205): 18.2 µM (inactive); GI50 (MOLT-4): 4.45 µM (inactive); GI50 (SK-MEL-5): 4.66 µM (inactive); GI50 (MDA-MB-231): 10.1 µM (inactive); GI50 (NCI-H460): 4.85 µM (inactive); GI50 (SN12C): 11.8 µM (inactive); GI50 (HCC 2998): 10.9 µM (inactive); GI50 (UACC-62): 3.49 µM (inactive); GI50 (HCT-116): 3.95 µM (inactive); GI50 (M14): 6.9 µM (inactive); GI50 (UO-31): 21.3 µM (inactive); GI50 (T47D): 7.64 µM (inactive); GI50 (MDA-MB-435): 1.95 µM (inactive); GI50 (ACHN): 12.4 µM (inactive); GI50 (RPMI-8226): 7.4 µM (inactive); GI50 (OVCAR-8): 16.6 µM (inactive); GI50 (SW-620): 4 µM (inactive); GI50 (SK-MEL-2): 10.3 µM (inactive); GI50 (HOP-62): 10.7 µM (inactive); GI50 (IGROV-1): 8.55 µM (inactive)

Q: Which results are given for `CN(C)c1ccc(C(=NN)c2ccc(N(C)C)cc2)cc1`?
A: GI50 (COLO 205): 0.344 µM (active); GI50 (MOLT-4): 0.361 µM (active); GI50 (SK-MEL-5): 0.447 µM (active); GI50 (MDA-MB-231): 0.526 µM (active); GI50 (NCI-H460): 0.337 µM (active); GI50 (SN12C): 2.56 µM (inactive); GI50 (HCC 2998): 0.551 µM (active); GI50 (UACC-62): 0.506 µM (active); GI50 (HCT-116): 0.532 µM (active); GI50 (M14): 0.504 µM (active); GI50 (UO-31): 6.49 µM (inactive); GI50 (T47D): 1.66 µM (inactive); GI50 (MDA-MB-435): 0.0416 µM (active); GI50 (ACHN): 8.3 µM (inactive); GI50 (RPMI-8226): 0.859 µM (active); GI50 (OVCAR-8): 2.52 µM (inactive); GI50 (SW-620): 0.462 µM (active); GI50 (SK-MEL-2): 0.121 µM (active); GI50 (HOP-62): 1.9 µM (inactive); GI50 (IGROV-1): 0.746 µM (active)

Q: For `CC(=O)C1=C(C)N(c2ccccc2)C2(O)C3=C(C(=O)c4ccccc4C3=O)C(O)=CC12Cl` (stereo not given), which GI50 (COLO 205) is on record?
A: Its GI50 is 5.21 µM (inactive).

Q: What about the GI50 (MOLT-4) of the same compound?
A: Its GI50 is 3.13 µM (inactive).

Q: What about the GI50 (SK-MEL-5) of the same compound?
A: Its GI50 is 2.91 µM (inactive).

Q: What about the GI50 (MDA-MB-231) of the same compound?
A: Its GI50 is 10.7 µM (inactive).

Q: What about the GI50 (NCI-H460) of the same compound?
A: Its GI50 is 5.26 µM (inactive).

Q: And the GI50 (SN12C)?
A: The GI50 was 4.46 µM (inactive).

Q: What about the GI50 (HCC 2998) of the same compound?
A: The GI50 was 4.63 µM (inactive).

Q: And the GI50 (UACC-62)?
A: Its GI50 is 13 µM (inactive).

Q: And the GI50 (HCT-116)?
A: Its GI50 is 5.96 µM (inactive).

Q: And the GI50 (M14)?
A: The GI50 was 7.03 µM (inactive).

Q: And the GI50 (UO-31)?
A: The GI50 was 5.07 µM (inactive).

Q: And the GI50 (T47D)?
A: The GI50 was 35.2 µM (inactive).

Q: What about the GI50 (MDA-MB-435) of the same compound?
A: Its GI50 is 2.32 µM (inactive).

Q: What about the GI50 (ACHN) of the same compound?
A: Its GI50 is 5.11 µM (inactive).

Q: And the GI50 (RPMI-8226)?
A: The GI50 was 0.855 µM (active).

Q: And the GI50 (OVCAR-8)?
A: Its GI50 is 4.08 µM (inactive).

Q: What about the GI50 (SW-620) of the same compound?
A: Its GI50 is 3.89 µM (inactive).

Q: What about the GI50 (SK-MEL-2) of the same compound?
A: The GI50 was 5.07 µM (inactive).

Q: What about the GI50 (HOP-62) of the same compound?
A: Its GI50 is 17.2 µM (inactive).

Q: What about the GI50 (IGROV-1) of the same compound?
A: Its GI50 is 2.71 µM (inactive).

From ChEMBL document CHEMBL1201862, “PubChem BioAssay data set” (2004)
